From ChEMBL document CHEMBL1147799, “An integrated in silico 3D model-driven discovery of a novel, potent, and selective amidosulfonamide 5-HT1A agonist (PRX-00023) for the treatment of anxiety and depression” (J Med Chem, 2006)
pEC50, pKi: −log10 of the molar value. Values belong to the compound of their own block, whether it stands above or below them.

Legend:
[1] = target: T1, Alpha-2A adrenergic receptor (Rattus norvegicus) (UniProt P22909); test: Displacement of [3H]RX 821002 from Adrenergic alpha-2a receptor in rat cerebral cortex cells at 1 uM; format: cell-based
T1 sequence (whole entry): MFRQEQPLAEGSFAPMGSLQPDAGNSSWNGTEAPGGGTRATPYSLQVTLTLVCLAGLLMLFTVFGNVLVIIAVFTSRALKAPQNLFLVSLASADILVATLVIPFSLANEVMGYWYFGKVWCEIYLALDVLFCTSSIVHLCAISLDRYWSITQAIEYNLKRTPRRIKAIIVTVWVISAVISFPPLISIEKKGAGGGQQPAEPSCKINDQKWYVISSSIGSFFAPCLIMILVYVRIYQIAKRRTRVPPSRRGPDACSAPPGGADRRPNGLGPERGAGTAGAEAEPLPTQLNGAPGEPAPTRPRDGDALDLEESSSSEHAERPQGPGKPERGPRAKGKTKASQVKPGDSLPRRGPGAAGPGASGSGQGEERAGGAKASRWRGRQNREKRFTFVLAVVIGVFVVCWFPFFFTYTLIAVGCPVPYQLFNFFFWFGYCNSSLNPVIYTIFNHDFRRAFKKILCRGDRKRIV

[2] = target: Adrenergic receptor alpha-1 (Rattus norvegicus) (UniProt P15823+P23944+P43140); test: Displacement of [3H]prazosin from Adrenergic alpha-1 receptor in rat cerebral cortex cells at 1 uM; format: cell-based
[3] = target: T2, 5-hydroxytryptamine receptor 1A (Homo sapiens, UniProt P08908); test: Displacement of [3H]8-OH-DPAT from human 5HT1A receptor in HEK293 cells
T2 sequence (P08908 whole entry): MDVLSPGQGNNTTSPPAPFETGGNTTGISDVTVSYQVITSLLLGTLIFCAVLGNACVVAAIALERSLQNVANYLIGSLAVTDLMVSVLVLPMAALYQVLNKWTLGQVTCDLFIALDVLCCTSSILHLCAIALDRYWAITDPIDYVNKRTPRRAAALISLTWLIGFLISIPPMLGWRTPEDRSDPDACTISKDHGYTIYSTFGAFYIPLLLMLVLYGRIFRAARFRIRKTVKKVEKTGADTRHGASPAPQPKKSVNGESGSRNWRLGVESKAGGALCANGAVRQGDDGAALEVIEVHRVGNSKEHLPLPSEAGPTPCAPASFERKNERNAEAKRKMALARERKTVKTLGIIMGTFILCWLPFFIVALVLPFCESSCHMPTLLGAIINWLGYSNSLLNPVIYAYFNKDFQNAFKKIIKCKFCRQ

[4] = target: T3, Adrenergic receptor alpha-1 (Rattus norvegicus, UniProt P15823+P23944+P43140); test: Displacement of [3H]prazosin from adrenergic alpha-1 receptor in rat cerebral cortex cells; format: cell-based
T3 sequence (P15823 whole entry): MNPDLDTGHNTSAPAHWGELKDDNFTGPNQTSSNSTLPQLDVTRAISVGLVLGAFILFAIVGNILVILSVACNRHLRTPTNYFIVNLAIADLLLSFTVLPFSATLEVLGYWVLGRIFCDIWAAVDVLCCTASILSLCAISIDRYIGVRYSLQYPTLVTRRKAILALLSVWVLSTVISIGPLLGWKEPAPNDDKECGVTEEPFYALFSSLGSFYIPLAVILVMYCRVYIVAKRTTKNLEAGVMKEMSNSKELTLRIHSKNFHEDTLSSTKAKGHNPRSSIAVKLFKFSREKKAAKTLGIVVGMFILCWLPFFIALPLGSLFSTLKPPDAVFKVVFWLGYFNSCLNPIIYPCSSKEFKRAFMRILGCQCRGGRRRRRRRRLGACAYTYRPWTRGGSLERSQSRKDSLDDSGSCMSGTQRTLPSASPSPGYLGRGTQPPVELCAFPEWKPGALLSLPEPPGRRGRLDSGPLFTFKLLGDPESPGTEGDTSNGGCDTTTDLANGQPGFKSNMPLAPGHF
T3 sequence (P23944 whole entry): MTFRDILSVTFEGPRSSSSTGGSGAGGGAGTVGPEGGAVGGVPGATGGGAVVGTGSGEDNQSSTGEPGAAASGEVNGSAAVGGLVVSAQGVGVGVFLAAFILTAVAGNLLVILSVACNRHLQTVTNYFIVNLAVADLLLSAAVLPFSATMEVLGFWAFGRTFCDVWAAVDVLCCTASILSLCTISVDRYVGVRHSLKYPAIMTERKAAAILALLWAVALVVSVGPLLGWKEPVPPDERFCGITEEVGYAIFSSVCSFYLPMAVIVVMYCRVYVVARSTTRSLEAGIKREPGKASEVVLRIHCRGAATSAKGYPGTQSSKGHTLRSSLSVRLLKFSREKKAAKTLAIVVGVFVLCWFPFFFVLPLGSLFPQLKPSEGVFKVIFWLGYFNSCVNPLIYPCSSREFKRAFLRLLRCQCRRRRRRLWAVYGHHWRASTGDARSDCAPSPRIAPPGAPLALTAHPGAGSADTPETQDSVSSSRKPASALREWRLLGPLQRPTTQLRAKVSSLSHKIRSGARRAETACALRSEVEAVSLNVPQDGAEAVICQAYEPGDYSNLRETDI
T3 sequence (P43140 whole entry): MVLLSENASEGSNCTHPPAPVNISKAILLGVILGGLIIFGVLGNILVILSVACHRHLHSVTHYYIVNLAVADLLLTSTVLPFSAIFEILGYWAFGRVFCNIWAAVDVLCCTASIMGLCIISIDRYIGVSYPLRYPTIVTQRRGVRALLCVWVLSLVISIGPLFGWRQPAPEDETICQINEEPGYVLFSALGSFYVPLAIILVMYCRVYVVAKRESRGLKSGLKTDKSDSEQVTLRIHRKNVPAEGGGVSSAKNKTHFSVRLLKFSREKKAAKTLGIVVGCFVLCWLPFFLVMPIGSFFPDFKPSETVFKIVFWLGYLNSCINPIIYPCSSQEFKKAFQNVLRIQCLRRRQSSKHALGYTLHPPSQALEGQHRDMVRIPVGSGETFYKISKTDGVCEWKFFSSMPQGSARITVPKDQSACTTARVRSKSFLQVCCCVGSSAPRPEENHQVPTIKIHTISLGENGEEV

[5] = Selectivity for adrenergic alpha-1 receptor over 5HT1A receptor
[6] = Elimination half life in human; format: ADME, organism-based; conditions: in vivo
[7] = Half life in human liver microsome at 5 uM; format: ADME; conditions: liver microsomes
[8] = Protein binding in human serum at 2 uM; format: ADME, organism-based; conditions: read-out: PPB (converted)
Cytochrome P450 1A2 = Cytochrome P450 1A2 (Homo sapiens, UniProt P05177); test: Inhibition of human recombinant cytochrome P450 1A2; format: ADME; conditions: recombinant enzyme
Sequence of Cytochrome P450 1A2 (P05177 whole entry): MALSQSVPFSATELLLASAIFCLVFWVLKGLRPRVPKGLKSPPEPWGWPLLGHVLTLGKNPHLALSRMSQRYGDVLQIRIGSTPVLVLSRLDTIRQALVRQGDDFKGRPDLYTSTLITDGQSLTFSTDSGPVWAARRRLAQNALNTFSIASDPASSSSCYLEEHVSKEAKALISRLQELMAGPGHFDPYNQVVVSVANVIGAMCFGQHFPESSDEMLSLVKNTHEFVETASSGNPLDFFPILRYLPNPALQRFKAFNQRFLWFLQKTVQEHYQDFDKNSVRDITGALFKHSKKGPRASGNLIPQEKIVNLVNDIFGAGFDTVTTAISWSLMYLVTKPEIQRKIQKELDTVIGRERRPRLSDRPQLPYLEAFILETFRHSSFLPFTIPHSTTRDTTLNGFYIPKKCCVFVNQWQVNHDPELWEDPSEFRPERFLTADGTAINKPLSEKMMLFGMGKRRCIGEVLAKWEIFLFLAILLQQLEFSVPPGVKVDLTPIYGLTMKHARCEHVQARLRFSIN

Cytochrome P450 2C9 = Cytochrome P450 2C9 (Homo sapiens, UniProt P11712); test: Inhibition of human recombinant cytochrome P450 2C9; format: ADME; conditions: recombinant enzyme
Sequence of Cytochrome P450 2C9 (P11712 whole entry): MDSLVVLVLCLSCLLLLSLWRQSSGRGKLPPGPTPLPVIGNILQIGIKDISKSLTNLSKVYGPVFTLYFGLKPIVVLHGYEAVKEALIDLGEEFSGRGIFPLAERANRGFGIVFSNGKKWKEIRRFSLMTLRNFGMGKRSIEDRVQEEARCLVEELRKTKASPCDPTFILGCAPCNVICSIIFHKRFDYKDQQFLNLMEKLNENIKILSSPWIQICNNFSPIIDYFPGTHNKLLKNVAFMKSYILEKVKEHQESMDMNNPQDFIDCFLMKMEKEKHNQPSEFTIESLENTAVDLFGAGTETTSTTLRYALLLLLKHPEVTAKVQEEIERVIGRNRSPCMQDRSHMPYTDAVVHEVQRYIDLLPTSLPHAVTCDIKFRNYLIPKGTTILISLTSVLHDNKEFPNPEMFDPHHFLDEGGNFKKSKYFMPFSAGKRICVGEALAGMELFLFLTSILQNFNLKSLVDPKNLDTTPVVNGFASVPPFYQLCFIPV

Cytochrome P450 2C19 = Cytochrome P450 2C19 (Homo sapiens, UniProt P33261); test: Inhibition of human recombinant cytochrome P450 2C19; format: ADME; conditions: recombinant enzyme
Sequence of Cytochrome P450 2C19 (P33261 whole entry): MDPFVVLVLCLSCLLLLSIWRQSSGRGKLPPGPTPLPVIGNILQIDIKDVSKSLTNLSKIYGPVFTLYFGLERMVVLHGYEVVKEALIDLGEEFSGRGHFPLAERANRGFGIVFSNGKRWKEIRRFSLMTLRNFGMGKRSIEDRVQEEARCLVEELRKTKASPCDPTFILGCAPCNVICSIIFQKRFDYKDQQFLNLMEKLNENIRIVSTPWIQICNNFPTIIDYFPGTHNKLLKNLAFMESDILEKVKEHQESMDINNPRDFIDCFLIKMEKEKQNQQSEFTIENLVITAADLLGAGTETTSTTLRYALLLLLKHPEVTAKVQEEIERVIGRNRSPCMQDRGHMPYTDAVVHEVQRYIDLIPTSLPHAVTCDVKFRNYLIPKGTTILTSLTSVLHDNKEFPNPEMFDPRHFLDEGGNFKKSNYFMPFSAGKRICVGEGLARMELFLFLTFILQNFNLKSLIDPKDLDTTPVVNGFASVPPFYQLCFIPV

Cytochrome P450 2D6 = Cytochrome P450 2D6 (Homo sapiens, UniProt P10635); test: Inhibition of human recombinant cytochrome P450 2D6; format: ADME; conditions: recombinant enzyme
Sequence of Cytochrome P450 2D6 (P10635 whole entry): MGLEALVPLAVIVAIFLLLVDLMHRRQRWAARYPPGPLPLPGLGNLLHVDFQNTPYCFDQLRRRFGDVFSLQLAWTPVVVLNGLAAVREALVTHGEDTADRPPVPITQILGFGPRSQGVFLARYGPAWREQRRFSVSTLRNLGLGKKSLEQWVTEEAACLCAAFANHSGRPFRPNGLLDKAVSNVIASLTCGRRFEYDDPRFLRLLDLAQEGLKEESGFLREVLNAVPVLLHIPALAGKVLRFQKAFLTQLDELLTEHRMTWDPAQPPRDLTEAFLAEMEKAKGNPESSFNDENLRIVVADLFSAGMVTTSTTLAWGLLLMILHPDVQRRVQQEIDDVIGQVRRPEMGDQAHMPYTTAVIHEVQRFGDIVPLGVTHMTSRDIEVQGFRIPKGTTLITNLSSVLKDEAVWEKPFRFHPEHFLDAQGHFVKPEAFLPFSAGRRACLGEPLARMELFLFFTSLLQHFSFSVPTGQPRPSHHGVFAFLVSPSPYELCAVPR

Cytochrome P450 3A4 = Cytochrome P450 3A4 (Homo sapiens, UniProt P08684); test: Inhibition of human recombinant cytochrome P450 3A4; format: ADME; conditions: recombinant enzyme
Sequence of Cytochrome P450 3A4 (P08684 whole entry): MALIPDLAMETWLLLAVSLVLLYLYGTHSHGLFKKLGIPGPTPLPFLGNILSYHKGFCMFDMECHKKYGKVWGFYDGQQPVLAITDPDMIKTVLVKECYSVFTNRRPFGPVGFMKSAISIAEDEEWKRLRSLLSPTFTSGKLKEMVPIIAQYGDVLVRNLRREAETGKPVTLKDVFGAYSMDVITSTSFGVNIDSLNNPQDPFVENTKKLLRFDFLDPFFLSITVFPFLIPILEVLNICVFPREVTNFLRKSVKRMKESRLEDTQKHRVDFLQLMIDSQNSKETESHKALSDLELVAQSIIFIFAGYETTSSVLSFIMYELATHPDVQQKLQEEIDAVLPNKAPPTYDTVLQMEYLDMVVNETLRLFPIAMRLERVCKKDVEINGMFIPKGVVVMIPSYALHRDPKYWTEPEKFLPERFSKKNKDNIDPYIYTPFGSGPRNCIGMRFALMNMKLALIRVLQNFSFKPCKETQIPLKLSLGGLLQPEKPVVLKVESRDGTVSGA

[9] = Cmax in Sprague-Dawley rat at 3 mg/kg, po; format: ADME, organism-based; parameters: dose 3 mg/kg, route oral; conditions: in vivo
[10] = Half life in Beagle dog at 3 mg/kg, po; format: ADME, organism-based, Canis lupus familiaris; parameters: dose 3 mg/kg, route oral; conditions: in vivo
[11] = Oral bioavailability in Beagle dog at 3 mg/kg, po and 1 mg/kg, iv; format: ADME, organism-based, Canis lupus familiaris; conditions: in vivo
[12] = Cmax in Beagle dog at 3 mg/kg, po; format: ADME, organism-based, Canis lupus familiaris; parameters: dose 3 mg/kg, route oral; conditions: in vivo
D(2) dopamine receptor = D(2) dopamine receptor (Homo sapiens, UniProt P14416); test: Binding affinity to D2 receptor by radioligand binding assay
Sequence of D(2) dopamine receptor (P14416 whole entry): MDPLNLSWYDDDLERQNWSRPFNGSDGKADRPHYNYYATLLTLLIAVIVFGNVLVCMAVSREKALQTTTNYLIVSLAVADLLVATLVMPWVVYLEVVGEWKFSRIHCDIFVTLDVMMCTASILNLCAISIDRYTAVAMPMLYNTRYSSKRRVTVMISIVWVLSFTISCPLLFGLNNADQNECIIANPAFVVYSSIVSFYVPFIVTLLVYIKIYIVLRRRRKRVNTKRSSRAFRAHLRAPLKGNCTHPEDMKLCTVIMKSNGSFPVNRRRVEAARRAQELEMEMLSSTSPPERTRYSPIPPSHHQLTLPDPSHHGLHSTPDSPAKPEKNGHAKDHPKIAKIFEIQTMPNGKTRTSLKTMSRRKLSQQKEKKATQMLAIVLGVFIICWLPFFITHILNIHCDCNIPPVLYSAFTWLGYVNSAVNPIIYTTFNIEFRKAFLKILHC

[13] = target: T2, 5-hydroxytryptamine receptor 1A; test: Activity against 5HT1A receptor by Gi-[35S]GTP-gamma-S binding assay; format: functional
[14] = Half life in Sprague-Dawley rat at 3 mg/kg, po; format: ADME, organism-based; parameters: dose 3 mg/kg, route oral; conditions: in vivo
[15] = Oral bioavailability in Sprague-Dawley rat at 3 mg/kg, po and 1 mg/kg, iv; format: ADME, organism-based; conditions: in vivo
[16] = target: T4, 5-hydroxytryptamine receptor 1A (Homo sapiens) (UniProt P08908); test: Activity against 5HT1A receptor relative to 5-HT by Gi-[35S]GTP-gamma-S binding assay; format: functional
T4 sequence (whole entry): T2 sequence (P08908 whole entry)

[17] = Toxicity in po dosed Sprague-Dawley rat; format: organism-based; conditions: in vivo
[18] = Toxicity in po dosed Beagle dog; format: organism-based, Canis lupus familiaris; conditions: in vivo

- Activity [1]: 14%
- Activity [2]: 47%
Compound: CCS(=O)(=O)Nc1cccc(N2CCN(CCCCNS(=O)(=O)c3ccc(C)cc3)CC2)c1

Compound: O=C1CCC(=O)N1C[C@H]1CC[C@H]2CN(c3ncccn3)CCN2C1 [SUNEPITRON]
- pKi [3]: 7.04
- Ki [4]: 0.035 µM
- Ratio Ki [5]: 0.4
- half-life [6]: 2 h

- Activity [1]: 0%
- half-life at 5 µM [7]: > 1.5 h
- fraction unbound at 2 µM [8]: 0.43
- Inhibition (Cytochrome P450 1A2): Not Active
- Inhibition (Cytochrome P450 2C9): Not Active
- Inhibition (Cytochrome P450 2C19): Not Active
- Inhibition (Cytochrome P450 2D6): Not Active
- Inhibition (Cytochrome P450 3A4): Not Active
- Cmax [9]: 0.35 µg/mL
- half-life [10]: 2.4 h
- bioavailability [11]: > 80%
- Cmax [12]: 0.6 µg/mL
- pKi [3]: 8.04
- Ki [4]: > 5 µM
- pKi (D(2) dopamine receptor): < 5.30
- pEC50 [13]: 7.22
- half-life [14]: 3.5 h
- bioavailability [15]: 50%
- Activity [2]: 5%
Compound: CC(=O)Nc1cccc(N2CCN(CCCCNS(=O)(=O)CC(C)C)CC2)c1

- Activity [1]: < 10%
- Activity [2]: 39%
Compound: CC(=O)Nc1cccc(N2CCN(CCCCNS(=O)(=O)c3ccc(F)cc3)CC2)c1

- Activity [1]: < 10%
- Activity [2]: < 10%
Compound: CC(=O)Nc1cccc(N2CCN(CC3CCN(S(=O)(=O)C(C)C)CC3)CC2)c1

- Activity [1]: 12%
- pKi [3]: 7.33
- Activity [2]: 47%
Compound: Cc1ccc(S(=O)(=O)NCCCCN2CCN(c3cccc(NS(=O)(=O)C(C)C)c3)CC2)cc1

- Activity [1]: < 10%
- Activity [2]: 10%
Compound: O=C(Nc1cccc(N2CCN(CCCCNS(=O)(=O)CC3CCCCC3)CC2)c1)C1CC1

- Activity [1]: < 10%
- pKi [3]: 7.11
- Activity [2]: 15%
Compound: Cc1ccc(S(=O)(=O)NCCCCN2CCN(c3cccc(NC(=O)C(C)C)c3)CC2)cc1

- Activity [1]: 31%
- pKi [3]: 6.37
- Activity [2]: 0%
Compound: CCC(=O)Nc1cccc(N2CCN(CCCCNS(=O)(=O)c3ccc(C)cc3)CC2)c1

- Activity [1]: < 10%
- Activity [2]: < 10%
Compound: CC(=O)Nc1cccc(N2CCN(CCCCNS(=O)(=O)C3CCCCC3)CC2)c1

- Activity [1]: < 10%
- Activity [2]: < 10%
Compound: CC(=O)Nc1cccc(N2CCN(CCCCNS(=O)(=O)C(C)C)CC2)c1

Compound: O=C1CC2(CCCC2)CC(=O)N1CCCCN1CCN(c2ncccn2)CC1 [BUSPIRONE]
- Cmax [9]: 0.004 µg/mL
- half-life [10]: 1 h
- Cmax [12]: 0.146 µg/mL
- half-life [6]: 2 h
- Activity [16]: 50%
- half-life [14]: 1 h
- LD50 [17]: 196 mg/kg
- LD50 [18]: 586 mg/kg
